Assay results as given in patent publication US10124004B2, “Pyrido[3,4-d]pyrimidine derivative and pharmaceutically acceptable salt thereof” (Teijin Pharma Limited, priority 2015, dated 2018).
Where two headings read alike, the source gives them in different places.

Tests used:
CDK2/cyclin A2 = molecular target: T1, CDK2/cyclin A2 (Homo sapiens, UniProt P24941); test: Human CDK2/cyclin A2 inhibitory activity (QS S Assist CDK2/Cyclin A2_FP Kit, IMAP fluorescence polarization); format: biochemical
T1 construct: purchased Carna Biosciences, Inc. QS S Assist CDK2/Cyclin A2_FP Kit
Outline: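 Kinase activity read as fluorescence polarization (485/535 nm) after phosphorylated fluorescent substrate binds IMAP reagent (30 min, RT, dark). Enzyme (2.5 ng/well) reacted 60 min at RT with ATP/substrate/metal in HEPES pH 7.4 buffer with Tween 20 and DTT; no-enzyme wells define 0% activity; IC50 by curve fit.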

CDK4/cyclin D3 = molecular target: T2, CDK4/cyclin D3 (Homo sapiens, UniProt P11802); test: Human CDK4/cyclin D3 inhibitory activity (QS S Assist CDK4/Cyclin D3_FP Kit, IMAP fluorescence polarization); format: biochemical
T2 construct: purchased Carna Biosciences, Inc. QS S Assist CDK4/Cyclin D3_FP Kit
T2 sequence (P11802 whole entry): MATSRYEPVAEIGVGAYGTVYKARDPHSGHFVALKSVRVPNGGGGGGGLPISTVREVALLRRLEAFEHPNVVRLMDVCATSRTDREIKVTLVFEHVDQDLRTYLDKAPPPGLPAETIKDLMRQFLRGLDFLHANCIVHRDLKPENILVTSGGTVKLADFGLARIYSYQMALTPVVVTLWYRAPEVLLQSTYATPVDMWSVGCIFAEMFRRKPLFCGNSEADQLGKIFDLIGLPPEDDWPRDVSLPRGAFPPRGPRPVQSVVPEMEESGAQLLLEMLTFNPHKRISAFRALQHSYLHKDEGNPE
T2 sequence (P30281 whole entry partner): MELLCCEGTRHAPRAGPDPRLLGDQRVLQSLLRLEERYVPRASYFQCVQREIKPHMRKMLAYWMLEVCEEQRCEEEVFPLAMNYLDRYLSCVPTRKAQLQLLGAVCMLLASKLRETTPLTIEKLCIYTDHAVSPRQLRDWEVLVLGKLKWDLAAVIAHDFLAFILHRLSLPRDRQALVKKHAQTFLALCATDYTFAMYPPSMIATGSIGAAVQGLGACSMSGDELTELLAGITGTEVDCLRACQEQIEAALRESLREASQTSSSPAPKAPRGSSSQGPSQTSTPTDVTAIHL
Outline: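 Percent inhibition, relative to DMSO with and without enzyme, was curve-fitted to give IC50 from polarization (ex 485, em 535 nm). The 45-min room-temperature reaction used 12.5-25 ng/well enzyme, kit ATP/substrate/metal mix, and HEPES pH 7.4 buffer with Tween20 and DTT, followed by 30-min IMAP binding in the dark.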

[1] = Human CDK2/cyclin A2 inhibitory activity, read-out: CDK2 Activity symbol
[2] = Human CDK4/cyclin D3 inhibitory activity, read-out: CDK4 Activity symbol
[3] = 50% inhibitory concentration against CDK2/cyclin A2, given as class symbol
[4] = 50% inhibitory concentration against CDK4/cyclin D3, given as class symbol

Row | Structure (SMILES) | IC50 (CDK2/cyclin A2; [1]) [nM] | IC50 (CDK4/cyclin D3; [2]) [nM] | IC50 (CDK2/cyclin A2; [3]) [nM] | IC50 (CDK4/cyclin D3; [4]) [nM]
1 | CC(C)Nc1nc([C@@H](C)O)cc2cnc(Nc3ccc(N4CCNC5(CC5)C4)nn3)nc12 [Compound 379] | ≥ 100 | < 10 | – | –
2 | CCCNc1nc(C2(C)COC2)cc2cnc(Nc3ccc4c(n3)CCNC4)nc12 [Compound 947] | – | – | ≥ 100 | < 10
3 | CC(=O)c1cc2cnc(Nc3ccc(N4CCNCC4)cn3)nc2c(NC2CCCC2)n1 [Compound 57] | ≥ 100 | < 10 | – | –
4 | CCCNc1nc(C2(C)COC2)cc2cnc(Nc3ccc(N4CCNCC4)nn3)nc12 [Compound 945] | – | – | ≥ 100 | < 10
5 | C[C@@H](O)c1cc2cnc(Nc3ccc(N4CCNCC4=O)cn3)nc2c(N(C)[C@H]2CCCOC2)n1 [Compound 872] | – | – | ≥ 100 | 10 to 100
6 | C[C@@H](O)c1cc2cnc(Nc3ccc(CN4CCN(CCO)CC4)cn3)nc2c(NCCCF)n1 [Compound 1074] | – | – | ≥ 100 | < 10
7 | CO[C@H](C)c1cc2cnc(Nc3ccc(OC4CCNCC4)cn3)nc2c(N[C@H]2CCCOC2)n1 [Compound 874] | – | – | ≥ 100 | < 10
8 | CC(=O)c1cc2cnc(Nc3ccc(CN4CCNCC4)cn3)nc2c(NC(C)C)n1 [Compound 329] | ≥ 100 | < 10 | – | –
9 | CC(C)Nc1nc(C(F)F)cc2cnc(Nc3ccc(CN4CCC(O)CC4)cn3)nc12 [Compound 142] | 10 to 100 | < 10 | – | –
10 | C[C@@H](O)c1cc2cnc(Nc3ccc(N4CCNCC4=O)cn3)nc2c(NCC2CC2)n1 [Compound 1043] | – | – | ≥ 100 | < 10
11 | FC(F)c1cc2cnc(Nc3ccc(N4CCNCC4)cn3)nc2c(N[C@H]2CCCNC2)n1 [Compound 2] | 10 to 100 | < 10 | – | –
12 | CC(C)Nc1nc(C(F)F)cc2cnc(Nc3ccc(CN4CCCNC4=O)cn3)nc12 [Compound 219] | 10 to 100 | < 10 | – | –
13 | C[C@@H](O)c1cc2cnc(Nc3ccc(N4CCNCC4=O)cn3)nc2c(NC2CCC(C)(C)OC2)n1 (some centres unmarked) [Compound 649] | – | – | ≥ 100 | < 10
14 | COC1CCC(Nc2nc([C@@H](C)O)cc3cnc(Nc4ccc(N5CCNCC5=O)cn4)nc23)CC1 (some centres unmarked) [Compound 650] | – | – | ≥ 100 | < 10
15 | C[C@@H](O)c1cc2cnc(Nc3ccc(OC[C@@H]4CCCN4)cn3)nc2c(N[C@H]2CCCOC2)n1 [Compound 782] | – | – | ≥ 100 | < 10
16 | CC(C)Nc1nc(C(F)F)cc2cnc(Nc3ccc(NC(=O)C(N)=O)cn3)nc12 [Compound 97] | ≥ 100 | 10 to 100 | – | –
17 | c1cc(N2CCNCC2)nnc1Nc1ncc2cc(C3CCOC3)nc(N[C@H]3CCCOC3)c2n1 (single isomer, unassigned) [Compound 939] | – | – | ≥ 100 | < 10
18 | COC(C)c1cc2cnc(Nc3ccc(CN4CCNCC4)cn3)nc2c(SC(C)C)n1 (centres unmarked) [Compound 456] | ≥ 100 | < 10 | – | –
19 | CC(C)Nc1nc(C(F)F)cc2cnc(Nc3ccc(N4CCN(C)CC4=O)cn3)nc12 [Compound 80] | 10 to 100 | < 10 | – | –
20 | COCC(C)(C)Nc1nc([C@@H](C)O)cc2cnc(Nc3ccc(CN4CCC(C(C)(C)O)CC4)cn3)nc12 [Compound 196] | ≥ 100 | < 10 | – | –

Row | Structure (SMILES) | IC50 (CDK2/cyclin A2; [1]) [nM] | IC50 (CDK4/cyclin D3; [2]) [nM] | IC50 (CDK2/cyclin A2; [3]) [nM] | IC50 (CDK4/cyclin D3; [4]) [nM]
21 | C[C@@H](O)c1cc2cnc(Nc3ccc(N4CCNCC4=O)cn3)nc2c(NC2CCC2)n1 [Compound 1045] | – | – | ≥ 100 | < 10
22 | CC(C)Nc1nc([C@@H](C)O)cc2cnc(Nc3ccc(N4CCN[C@H](C(C)C)C4=O)cn3)nc12 [Compound 766] | – | – | ≥ 100 | 10 to 100
23 | CO[C@H](C)c1cc2cnc(Nc3ccc(N4CCNCCC4=O)cn3)nc2c(NC(C)C)n1 [Compound 499] | 10 to 100 | < 10 | – | –
24 | CC(C)Nc1nc([C@@H](C)O)cc2cnc(Nc3ccc(N4C(=O)CN5CCC4CC5)cn3)nc12 [Compound 623] | 10 to 100 | < 10 | – | –
25 | CC(C)Nc1nc([C@@H](C)O)cc2cnc(Nc3ccc(N4CCNC[C@H]4C)cn3)nc12 [Compound 985] | – | – | ≥ 100 | < 10
26 | CCCNc1nc([C@@H](C)OC)cc2cnc(Nc3ccc(CN4CCN(CCO)CC4)cn3)nc12 [Compound 852] | – | – | ≥ 100 | < 10
27 | CC(C)Nc1nc([C@@H](C)O)cc2cnc(Nc3ccc(N4CCN(C(C)C)CC4)nn3)nc12 [Compound 585] | ≥ 100 | < 10 | – | –
28 | CC(C)Nc1nc(C(F)F)cc2cnc(Nc3ccc(CN4CCC(C(=O)O)CC4)cn3)nc12 [Compound 129] | 10 to 100 | < 10 | – | –
29 | CC(C)Nc1nc(C(F)F)cc2cnc(Nc3ccc(C4CCC(O)CC4)cn3)nc12 (centres unmarked) [Compound 107] | ≥ 100 | 10 to 100 | – | –
30 | CO[C@H](C)c1cc2cnc(Nc3ccc4c(n3)CCN(CCN(C)C)C4)nc2c(N[C@H]2CCCOC2)n1 [Compound 1132] | – | – | ≥ 100 | < 10
31 | COC[C@H](C)Nc1nc([C@@H](C)O)c(Cl)c2cnc(Nc3ccc(N4CCC(O)CC4)nn3)nc12 [Compound 759] | – | – | ≥ 100 | 10 to 100
32 | CC(C)Nc1nc(C(F)F)cc2cnc(Nc3ccc(CC(=O)O)cn3)nc12 [Compound 133] | ≥ 100 | 10 to 100 | – | –
33 | CC1(c2cc3cnc(Nc4ccc5c(n4)CCN(CCO)C5)nc3c(N[C@H]3CCCOC3)n2)COC1 [Compound 1129] | – | – | ≥ 100 | < 10
34 | CC(C)Nc1nc([C@@H](C)O)cc2cnc(Nc3ccc(N4CCN(CC#N)CC4)nn3)nc12 [Compound 901] | – | – | ≥ 100 | < 10
35 | CC(C)Nc1nc([C@@H](C)O)cc2cnc(Nc3ccc(C4CCN(C(C)(C)C(=O)O)CC4)nn3)nc12 [Compound 790] | – | – | ≥ 100 | < 10
36 | CCNc1nc([C@@H](C)O)cc2cnc(Nc3ccc(CN4CCN(CCO)C[C@H]4C)cn3)nc12 [Compound 982] | – | – | ≥ 100 | < 10
37 | CCCNc1nc([C@@H](C)O)cc2cnc(Nc3ccc(CN4CCN(CCO)CC4)c(C)n3)nc12 [Compound 1047] | – | – | ≥ 100 | < 10
38 | COCC(C)(C)Nc1nc([C@@H](C)O)cc2cnc(Nc3ccc(CN4CCNCC4=O)cn3)nc12 [Compound 248] | ≥ 100 | 10 to 100 | – | –
39 | CC(C)Nc1nc([C@@H](C)O)cc2cnc(Nc3ccc(N4CCC(O)CC4=O)cn3)nc12 (some centres unmarked) [Compound 926] | – | – | ≥ 100 | < 10
40 | CC(=O)c1cc2cnc(Nc3ccc(CN4CCN(CCO)CC4)cn3)nc2c(NCC(C)C)n1 [Compound 973] | – | – | ≥ 100 | 10 to 100

Row | Structure (SMILES) | IC50 (CDK2/cyclin A2; [1]) [nM] | IC50 (CDK4/cyclin D3; [2]) [nM] | IC50 (CDK2/cyclin A2; [3]) [nM] | IC50 (CDK4/cyclin D3; [4]) [nM]
41 | CC(O)c1cc2cnc(Nc3ccc(N4CCNCC4)cn3)nc2c(NCc2ccccc2)n1 (centres unmarked) [Compound 69] | ≥ 100 | < 10 | – | –
42 | O=C1CNCCN1c1ccc(Nc2ncc3cc(C(F)F)nc(N[C@H]4CCCOC4)c3n2)nc1 [Compound 849] | – | – | 10 to 100 | < 10
43 | CNC1CC2(C1)CN(c1ccc(Nc3ncc4cc([C@@H](C)O)nc(NC(C)C)c4n3)nn1)C2 [Compound 606] | ≥ 100 | < 10 | – | –
44 | CO[C@H](C)c1cc2cnc(Nc3ccc(N4CC[C@H](N)[C@@H](F)C4)cn3)nc2c(NC(C)C)n1 [Compound 467] | ≥ 100 | < 10 | – | –
45 | CO[C@H](C)c1cc2cnc(Nc3ccc(CN4CCOCC4(C)C)cn3)nc2c(NC(C)C)n1 [Compound 279] | ≥ 100 | 10 to 100 | – | –
46 | CCNc1nc([C@@H](C)O)cc2cnc(Nc3ccc(CN4CCN(CCO)C(C)(C)C4)cn3)nc12 [Compound 1169] | – | – | ≥ 100 | < 10
47 | C[C@@H](O)c1cc2cnc(Nc3ccc(N4CCNCC4)nn3)nc2c(NC2(C(=O)O)CCCC2)n1 [Compound 316] | ≥ 100 | ≥ 100 | – | –
48 | CC(C)Nc1nc(C(F)F)cc2cnc(Nc3ccc(N4CCNCC4)c(F)n3)nc12 [Compound 67] | 10 to 100 | < 10 | – | –
49 | CC(C)Nc1nc([C@@H](C)O)cc2cnc(Nc3ccc(CN4CC5CCC(C4)N5C)cn3)nc12 [Compound 1224] | – | – | ≥ 100 | < 10
50 | CO[C@H](C)c1nc(NC(C)C)c2nc(Nc3ccc(C(=O)N4CCNCC4)cn3)ncc2c1Cl [Compound 842] | – | – | ≥ 100 | 10 to 100
51 | CC(C)Nc1nc([C@@H](C)O)cc2cnc(Nc3ccc(N4CC5(CCN5)C4)nn3)nc12 [Compound 573] | ≥ 100 | < 10 | – | –
52 | CO[C@H](C)c1cc2cnc(Nc3ccc4c(n3)CCN(CCN(C)C)C4)nc2c(N[C@H]2CC[C@H](O)CC2)n1 [Compound 1180] | – | – | ≥ 100 | < 10
53 | CC(=O)NCc1ccc(Nc2ncc3cc(C(F)F)nc(NC(C)C)c3n2)nc1 [Compound 124] | ≥ 100 | 10 to 100 | – | –
54 | CC(C)CN1CCC(=O)N(c2ccc(Nc3ncc4cc([C@@H](C)O)nc(NC(C)C)c4n3)nc2)CC1 [Compound 632] | – | – | ≥ 100 | < 10
55 | CCCNc1nc(C2CCOC2)cc2cnc(Nc3ccc4c(n3)CCNC4)nc12 (centres unmarked) [Compound 948] | – | – | ≥ 100 | < 10
56 | CC(C)Nc1nc(C(F)F)cc2cnc(Nc3ccc(CN(C)S(C)(=O)=O)cn3)nc12 [Compound 141] | ≥ 100 | < 10 | – | –
57 | CC(C)CNc1nc([C@@H](C)O)cc2cnc(Nc3ccc(CN4CCC[C@H](O)C4)cn3)nc12 [Compound 1189] | – | – | ≥ 100 | < 10
58 | CCCNc1nc([C@@H](C)OC)cc2cnc(Nc3ccc4c(n3)CCN(C(=O)OCCN(C)C)C4)nc12 [Compound 1133] | – | – | ≥ 100 | < 10
